Laboratory results reported in US9409966B2, “Glucagon-like peptide-1 derivatives and their pharmaceutical use” (priority 2007, dated 2016).

What was measured:
[1] = molecular target: human serum albumin (HSA) (Homo sapiens, UniProt P02768); experiment: Albumin binding affinity, competition scintillation proximity assay (SPA)
Description: Streptavidin-SPA beads (GE Healthcare RPNQ0009) were incubated with biotinylated HSA for 5 hours. The beads were washed with buffer to remove unbound HSA. […] After 20 hours of gentle rocking at room temperature the plates were centrifuged and counted on a TopCounter.

human GLP-1 receptor = molecular target: T1, human GLP-1 receptor (Homo sapiens, UniProt P43220); experiment: Stimulation of cAMP formation in a cell line expressing the cloned human GLP-1 receptor; type: biochemical; conditions: cAMP production, purified plasma membranes from BHK467-12A (tk-ts13), AlphaScreen cAMP Assay Kit; read-out: Potency [EC50/nM]
T1 construct: expressed in transfected cells; host or cells: BHK467-12A (tk-ts13) baby hamster kidney cells; purified plasma membranes
T1 sequence (P43220 24-463): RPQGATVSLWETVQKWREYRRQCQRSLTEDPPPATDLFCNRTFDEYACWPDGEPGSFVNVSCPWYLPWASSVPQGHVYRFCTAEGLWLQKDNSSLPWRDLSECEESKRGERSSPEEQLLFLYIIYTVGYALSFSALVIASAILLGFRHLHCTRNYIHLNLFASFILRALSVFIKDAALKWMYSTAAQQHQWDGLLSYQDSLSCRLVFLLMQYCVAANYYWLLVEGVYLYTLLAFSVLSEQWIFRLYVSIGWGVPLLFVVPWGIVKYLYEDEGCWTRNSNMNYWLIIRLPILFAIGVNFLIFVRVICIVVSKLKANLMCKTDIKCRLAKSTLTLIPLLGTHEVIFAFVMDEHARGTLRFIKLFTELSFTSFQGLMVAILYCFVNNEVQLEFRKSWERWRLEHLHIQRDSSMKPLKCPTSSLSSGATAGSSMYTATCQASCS
Description: A stable transfected cell line has been prepared at NN A/S, Denmark, and a high expressing clone was selected for screening. The cells were grown at 5% CO2 in DMEM, 5% FCS, 1% Pen/Strep (Penicillin/Streptomycin) and 0.5 mg/ml of the selection marker G418.
Cells at approximate 80% confluence were washed 2× with PBS (Phosphate Buffered Saline) and harvested with Versene (aqueous solution of the tetrasodium salt of ethylenediaminetetraacetic acid), centrifuged 5 min at 1000 rpm and the supernatant removed. The additional steps were all made on ice. […] Suspension in Buffer 2, homogenization and centrifugation was repeated once and the membranes were resuspended in Buffer 2 and ready for further analysis or stored at −80° C.
The functional receptor assay was carried out by measuring the peptide induced cAMP production by The AlphaScreen Technology. […] The capture of cAMP is achieved by using a specific antibody conjugated to acceptor beads. Formed cAMP was counted and measured at a AlphaFusion Microplate Analyzer. The EC50 values were calculated using the Graph-Pad Prisme software (version 5).

Sequence of human serum albumin (HSA) (P02768 25-609): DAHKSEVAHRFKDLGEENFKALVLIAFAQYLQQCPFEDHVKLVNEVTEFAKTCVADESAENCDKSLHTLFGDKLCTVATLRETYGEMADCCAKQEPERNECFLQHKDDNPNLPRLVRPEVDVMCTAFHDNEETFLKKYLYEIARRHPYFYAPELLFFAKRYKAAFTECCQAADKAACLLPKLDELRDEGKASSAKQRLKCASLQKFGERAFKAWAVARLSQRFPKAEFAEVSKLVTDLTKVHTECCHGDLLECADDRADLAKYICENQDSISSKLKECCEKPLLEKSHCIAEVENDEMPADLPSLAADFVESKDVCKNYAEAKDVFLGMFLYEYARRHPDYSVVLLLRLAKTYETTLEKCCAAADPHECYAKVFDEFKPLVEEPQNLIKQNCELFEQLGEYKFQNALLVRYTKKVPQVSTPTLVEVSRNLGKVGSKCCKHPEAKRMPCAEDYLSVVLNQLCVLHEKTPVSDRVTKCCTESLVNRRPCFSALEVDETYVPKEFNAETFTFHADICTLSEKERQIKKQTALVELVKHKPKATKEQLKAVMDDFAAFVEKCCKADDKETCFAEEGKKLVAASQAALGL

Row | EC50 [1] | EC50 (human GLP-1 receptor) | SMILES
1 | 800 to 1500 nM | 1.8 nM | CC[C@H](C)[C@H](NC(=O)[C@H](Cc1ccccc1)NC(=O)[C@H](CCC(=O)O)NC(=O)[C@H](CCCNC(=N)N)NC(=O)[C@H](C)NC(=O)[C@H](C)NC(=O)[C@H](CCC(N)=O)NC(=O)[C@H](CCC(=O)O)NC(=O)[C@H](CCC(=O)O)NC(=O)[C@H](CC(C)C)NC(=O)[C@H](Cc1ccc(O)cc1)NC(=O)[C@H](CO)NC(=O)[C@H](CO)NC(=O)[C@@H](NC(=O)[C@H](CC(=O)O)NC(=O)[C@H](CO)NC(=O)[C@@H](NC(=O)[C@H](Cc1ccccc1)NC(=O)[C@@H](NC(=O)CNC(=O)[C@H](CCC(=O)O)NC(=O)C(C)(C)NC(=O)[C@@H](N)Cc1c[nH]cn1)[C@@H](C)O)[C@@H](C)O)C(C)C)C(=O)N[C@@H](C)C(=O)N[C@@H](Cc1c[nH]c2ccccc12)C(=O)N[C@@H](CC(C)C)C(=O)N[C@H](C(=O)N[C@@H](CCCNC(=N)N)C(=O)NCC(=O)N[C@@H](CCCNC(=N)N)C(=O)N[C@@H](CCCCNC(=O)COCCOCCNC(=O)CC[C@H](NC(=O)CC[C@H](NC(=O)CCCCCCCCCCCNC(=O)CCCS(=O)(=O)NC(=O)CCCCCCCCCCCCCCCc1nnn[nH]1)C(=O)O)C(=O)O)C(N)=O)C(C)C [Example 12, N-epsilon37-[2-(2-{2-[(S)-4-Carboxy-4-((S)-4-carboxy-4-{12-[4-(16-(1H-tetrazol-5-yl)hexadecanoylsulfamoyl)butyrylamino]dodecanoylamino}butyrylamino)butyrylamino]ethoxy}ethoxy)acetyl][Aib8,Glu22,Arg26,Arg34,Lys37]GLP-1-(7-37)amide]
2 | 100 to 150 nM | 1.97 nM | CC[C@H](C)[C@H](NC(=O)[C@H](Cc1ccccc1)NC(=O)[C@H](CCC(=O)O)NC(=O)[C@H](CCCNC(=N)N)NC(=O)[C@H](C)NC(=O)[C@H](C)NC(=O)[C@H](CCC(N)=O)NC(=O)[C@H](CCC(=O)O)NC(=O)[C@H](CCC(=O)O)NC(=O)[C@H](CC(C)C)NC(=O)[C@H](Cc1ccc(O)cc1)NC(=O)[C@H](CO)NC(=O)[C@H](CO)NC(=O)[C@@H](NC(=O)[C@H](CC(=O)O)NC(=O)[C@H](CO)NC(=O)[C@@H](NC(=O)[C@H](Cc1ccccc1)NC(=O)[C@@H](NC(=O)CNC(=O)[C@H](CCC(=O)O)NC(=O)[C@H](C)NC(=O)CCc1c[nH]cn1)[C@@H](C)O)[C@@H](C)O)C(C)C)C(=O)N[C@@H](C)C(=O)N[C@@H](Cc1c[nH]c2ccccc12)C(=O)N[C@@H](CC(C)C)C(=O)N[C@H](C(=O)N[C@@H](CCCNC(=N)N)C(=O)NCC(=O)N[C@@H](CCCNC(=N)N)C(=O)N[C@@H](CCCCNC(=O)COCCOCCNC(=O)CC[C@H](NC(=O)CC[C@H](NC(=O)CCCCCCCCCCCNC(=O)CCCS(=O)(=O)NC(=O)CCCCCCCCCCCCCCCc1nnn[nH]1)C(=O)O)C(=O)O)C(N)=O)C(C)C [Example 13, N-epsilon37-[2-(2-{2-[(S)-4-Carboxy-4-((S)-4-carboxy-4-{12-[4-(16-(1H-tetrazol-5-yl)hexadecanoylsulfamoyl)butyrylamino]dodecanoylamino}butyrylamino)butyrylamino]ethoxy}ethoxy)acetyl][DesaminoHis7,Glu22,Arg26,Arg34,Lys37]GLP-1-(7-37)amide]
